Square brackets hold non-standard residues; d marks the D form. Peptide text beside a SMILES is read from it. * marks the point of attachment. Alaψ(CH2NMeCH2CH2OH) = C[C@@H](CN(C)CCO)N*; Cha = N[C@@H](CC1CCCCC1)C(=O)O; Lauroyl = CCCCCCCCCCCC(=O)*; Decanoyl = CCCCCCCCCC(=O)*; Octanoyl = CCCCCCCC(=O)*; Hexanoyl = CCCCCC(=O)*; Aib = CC(C)(N)C(=O)O; Propionyl = CCC(=O)*; Butyryl = CCCC(=O)*
Tests used:
BxPC-3 cells [1] = experiment: PrestoBlue cell viability assay, comparative cytotoxicity assay under 'low glucose'; assay type: cell-based, human; details: 24 h exposure; for IC50: 'low glucose' RPMI 1640 (no glucose added), 50.8 pM to 1 µM, three independent experiments each in technical duplicate; for AUC, PrestoBlue, BxPC-3 / Emax @ 1 µM, PrestoBlue, BxPC-3: 'low glucose', three independent experiments in duplicate; for AUC, PrestoBlue, BxPC-3: area under viability-concentration curve, baseline y = 0; for Emax @ 1 µM, PrestoBlue, BxPC-3: response (percent viability) at highest concentration 1 µM
Text: (§1) Endpoint fluorescence was quantified as described above.

PANC-1 cells [2] = experiment: as above; assay type: cell-based, human; details: 24 h exposure; for IC50: 'low glucose' DMEM (no glucose added), 457 pM to 9 µM, three independent experiments each in technical duplicate; for AUC, PrestoBlue, PANC-1 / Emax @ 9 µM, PrestoBlue, PANC-1: 'low glucose', three independent experiments in duplicate; for AUC, PrestoBlue, PANC-1: area under viability-concentration curve, baseline y = 0; for Emax @ 9 µM, PrestoBlue, PANC-1: response (percent viability) at highest concentration 9 µM
Text: as §1

BxPC-3 cells [3] = experiment: CyQUANT Direct cell proliferation assay, comparative cytotoxicity assay under 'low glucose'; assay type: cell-based, human; details: 24 h exposure; for IC50: 'low glucose' RPMI 1640 (no glucose added), 50.8 pM to 1 µM, three independent experiments each in technical duplicate; for AUC, CyQUANT Direct, BxPC-3 / Emax @ 1 µM, CyQUANT Direct, BxPC-3: 'low glucose', three independent experiments in duplicate; for AUC, CyQUANT Direct, BxPC-3: area under viability-concentration curve, baseline y = 0; for Emax @ 1 µM, CyQUANT Direct, BxPC-3: response (percent viability) at highest concentration 1 µM
Text: as §1

PANC-1 cells [4] = experiment: as above; assay type: cell-based, human; details: 24 h exposure; for IC50: 'low glucose' DMEM (no glucose added), 457 pM to 9 µM, three independent experiments each in technical duplicate; for AUC, CyQUANT Direct, PANC-1 / Emax @ 9 µM, CyQUANT Direct, PANC-1: 'low glucose', three independent experiments in duplicate; for AUC, CyQUANT Direct, PANC-1: area under viability-concentration curve, baseline y = 0; for Emax @ 9 µM, CyQUANT Direct, PANC-1: response (percent viability) at highest concentration 9 µM
Text: as §1

BxPC-3 cells [5] = experiment: Initial cytotoxicity assay (PrestoBlue and CyQUANT Direct Confirmation Assay), 25 mM glucose; assay type: cell-based, human; details: 3-day (72 h) incubation, RPMI-1640 with 25 mM glucose, up to highest concentration tested of 1 µM, both viability assays
Description: The CyQUANT™ Direct Cell Proliferation Assay was subsequently performed by mixing the CyQUANT™ Direct nucleic acid stain, CyQUANT™ Direct background suppressor I, and PBS (pH 7.4) as per the vendor instructions, then adding 100 µL of this mixture into each well. The plate was returned into the incubator for a further 1 h, and the endpoint fluorescence bottom-read at the Ex/Em wavelength of 485/538 nm on the SpectraMax iD3 plate reader. Blank wells (medium only) and two negative controls—(1) cells + medium, (2) cells + medium + 0.3% v/v DMSO (equivalent to 1 µM peptide)—were set up in the plate for each experiment.

PANC-1 cells [6] = details: 24 h exposure, medium with or without 5 mM glucose, up to 9 µM
Description: Cells were seeded at a density of 25,000 cells/well (BxPC-3) and 30,000 cells/well (PANC-1) in Nunc MicroWell 96-Well Black Optical-Bottom Plates with Polymer Base (total volume: 100 µL). Cells were first incubated overnight at 37 °C, 5% CO2 to permit adherence, after which the medium in each well was aspirated, briefly washed once with 100 µL/well of PBS (pH 7.4) and replaced with 100 µL of either RPMI 1640 (BxPC-3, #11879020) or DMEM (PANC-1, #11966025) supplemented with or without 5 mM glucose to create the ‘normal glucose’ and ‘low glucose’ media, respectively. This 5 mM glucose concentration was selected to reflect the physiological concentration of glucose in plasma. Each well was then exposed to the peptides in duplicate at a concentration range of 50.8 pM to 1 µM (BxPC-3) or 457 pM to 9 µM (PANC-1) for 24 h (threefold serial dilution in the corresponding ‘normal glucose’ or ‘low glucose’ media, ten steps). Endpoint fluorescence was quantified as described above.
Blank correction (wells containing medium only) was first performed on the raw fluorescence–concentration data from the plate reader. Cell viability was then calculated as a percentage by normalizing to the fluorescence of the wells containing the lowest drug concentration (50.8 pM for BxPC-3, 457 pM for PANC-1). The resulting data from three independent experiments (each in technical duplicate) was then plotted on GraphPad Prism 9 and analyzed using the built-in ‘[Inhibitor] vs. response—Variable slope (four parameters)’ equation.

Compound	IC50 (BxPC-3 cells [1])	AUC, PrestoBlue, BxPC-3 (BxPC-3 cells [1])	Emax @ 1 µM, PrestoBlue, BxPC-3 (BxPC-3 cells [1])	IC50 (PANC-1 cells [2])	AUC, PrestoBlue, PANC-1 (PANC-1 cells [2])	Emax @ 9 µM, PrestoBlue, PANC-1 (PANC-1 cells [2])	IC50 (BxPC-3 cells [3])	AUC, CyQUANT Direct, BxPC-3 (BxPC-3 cells [3])	Emax @ 1 µM, CyQUANT Direct, BxPC-3 (BxPC-3 cells [3])	IC50 (PANC-1 cells [4])	AUC, CyQUANT Direct, PANC-1 (PANC-1 cells [4])	Emax @ 9 µM, CyQUANT Direct, PANC-1 (PANC-1 cells [4])	Inhibition of proliferation of BxPC-3 cells (in words) (BxPC-3 cells [5])	Cytotoxicity against PANC-1 under 'low glucose' vs 'normal glucose' (in words) (PANC-1 cells [6])
CCCC(=O)N1CCC[C@H]1C(=O)N[C@@H](CC1CCCCC1)C(=O)NC(C)(C)C(=O)NC(C)(C)C(=O)N[C@H](C(=O)N[C@H](C(=O)NC(C)(C)C(=O)NC(C)(C)C(=O)N[C@@H](C)CN(C)CCO)C(C)C)[C@@H](C)CC [(15)] (Butyryl-P[Cha][Aib][Aib]IV[Aib][Aib]-{Alaψ(CH2NMeCH2CH2OH)})	500 nM	5.8 ×10^−5	16.3%	900 nM	33.6 ×10^−5	31.0%	500 nM	5.8 ×10^−5	33.8%	4800 nM	50.3 ×10^−5	53.7%	–	–
CCCCCCCCCCCC(=O)N1CCC[C@H]1C(=O)N[C@@H](CC1CCCCC1)C(=O)NC(C)(C)C(=O)NC(C)(C)C(=O)N[C@H](C(=O)N[C@H](C(=O)NC(C)(C)C(=O)NC(C)(C)C(=O)N[C@@H](C)CN(C)CCO)C(C)C)[C@@H](C)CC [(19)] (Lauroyl-P[Cha][Aib][Aib]IV[Aib][Aib]-{Alaψ(CH2NMeCH2CH2OH)})	100 nM	1.6 ×10^−5	4.6%	200 nM	21.4 ×10^−5	4.7%	100 nM	2.6 ×10^−5	18.3%	800 nM	38.9 ×10^−5	26.4%	–	–
CCCCCCCC(=O)N1CCC[C@H]1C(=O)N[C@@H](CC1CCCCC1)C(=O)NC(C)(C)C(=O)NC(C)(C)C(=O)N[C@H](C(=O)N[C@H](C(=O)NC(C)(C)C(=O)NC(C)(C)C(=O)N[C@@H](C)CN(C)CCO)C(C)C)[C@@H](C)CC [(17)] (Octanoyl-P[Cha][Aib][Aib]IV[Aib][Aib]-{Alaψ(CH2NMeCH2CH2OH)})	400 nM	5.1 ×10^−5	20.0%	600 nM	25.5 ×10^−5	8.1%	500 nM	5.6 ×10^−5	33.5%	2000 nM	43.7 ×10^−5	31.6%	–	–
trichoderin A [(3)]	400 nM	5.4 ×10^−5	3.6%	300 nM	21.7 ×10^−5	4.7%	400 nM	4.9 ×10^−5	19.6%	1500 nM	41.0 ×10^−5	28.2%	only partially inhibited the proliferation	–
CC[C@H](C)[C@H](NC(=O)C(C)(C)NC(=O)C(C)(C)NC(=O)[C@H](CC1CCCCC1)NC(=O)[C@@H]1CCCN1C(C)=O)C(=O)N[C@H](C(=O)NC(C)(C)C(=O)NC(C)(C)C(=O)N[C@@H](C)CN(C)CCO)C(C)C [(13)] (Ac-P[Cha][Aib][Aib]IV[Aib][Aib]-{Alaψ(CH2NMeCH2CH2OH)})	> 1000 nM	9.5 ×10^−5	94.0%	6000 nM	58.9 ×10^−5	34.6%	> 1000 nM	11 ×10^−5	111.3%	8500 nM	67.8 ×10^−5	48.1%	–	sufficient to induce cytotoxic effects
CCC(=O)N1CCC[C@H]1C(=O)N[C@@H](CC1CCCCC1)C(=O)NC(C)(C)C(=O)NC(C)(C)C(=O)N[C@H](C(=O)N[C@H](C(=O)NC(C)(C)C(=O)NC(C)(C)C(=O)N[C@@H](C)CN(C)CCO)C(C)C)[C@@H](C)CC [(14)] (Propionyl-P[Cha][Aib][Aib]IV[Aib][Aib]-{Alaψ(CH2NMeCH2CH2OH)})	600 nM	6.8 ×10^−5	25.1%	1800 nM	38.4 ×10^−5	31.5%	600 nM	6.8 ×10^−5	27.3%	7000 nM	51.8 ×10^−5	51.5%	–	–
CCCCCCCCCC(=O)N1CCC[C@H]1C(=O)N[C@@H](CC1CCCCC1)C(=O)NC(C)(C)C(=O)NC(C)(C)C(=O)N[C@H](C(=O)N[C@H](C(=O)NC(C)(C)C(=O)NC(C)(C)C(=O)N[C@@H](C)CN(C)CCO)C(C)C)[C@@H](C)CC [(18)] (Decanoyl-P[Cha][Aib][Aib]IV[Aib][Aib]-{Alaψ(CH2NMeCH2CH2OH)})	200 nM	3.3 ×10^−5	5.5%	200 nM	22.2 ×10^−5	3.3%	200 nM	3.9 ×10^−5	30.0%	2200 nM	44.7 ×10^−5	41.7%	–	–
CCCCCC(=O)N1CCC[C@H]1C(=O)N[C@@H](CC1CCCCC1)C(=O)NC(C)(C)C(=O)NC(C)(C)C(=O)N[C@H](C(=O)N[C@H](C(=O)NC(C)(C)C(=O)NC(C)(C)C(=O)N[C@@H](C)CN(C)CCO)C(C)C)[C@@H](C)CC [(16)] (Hexanoyl-P[Cha][Aib][Aib]IV[Aib][Aib]-{Alaψ(CH2NMeCH2CH2OH)})	400 nM	5.0 ×10^−5	7.1%	500 nM	24.3 ×10^−5	7.7%	400 nM	5.2 ×10^−5	21.0%	2000 nM	42.1 ×10^−5	41.0%	–	–
